Data taken from patent US7816352B2, “Apoptosis inhibitors” (The Regents of The University of California, priority 2005, dated 2010).
Where two headings read alike, the source gives them in different places.

How the values were obtained:
thymocytes = assay: Cytoprotection of mouse thymocytes from dexamethasone-induced apoptosis (PI/DiOC6 flow cytometry); format: cell-based, C57Bl/6 mice; settings: Thymocyte
Description: Thymocytes were harvested from young C57Bl/6 mice and cultured at 37° C. in 5% CO2 in RPMI 1640 containing 10% FBS, 1% Penicillin/Streptomycin (Gibco BRL, Rockville, Md.). Thymocytes were plated at a density of 10^7 cells/mL and pre-incubated with 5-10 μM of test compounds, 1, 2, 4, and 11 (from 10 mM
[drawing 8] stock in DMSO) for 30 minutes before induction of apoptosis. Apoptosis was induced with 5 μM dexamethasone or by exposure to 6 Gy gamma radiation. After 6 hours, cell apoptosis was assayed by propidium iodide (PI) and 3,3′ dihexyloxacarbocyanine iodide (DiOC6) staining. The cells were removed from the plate and incubated for 30 minutes in medium with 40 nM DiOC6 and 5 μg/mL PI and then analyzed by flow cytometry in a FACS caliber (Beckton-Dickinson, San Jose, Calif.). Viable cells had high DiOC6 (FL-1) and low PI (FL-3), whereas apoptotic cells had low DiOC6 (FL-1) and […]. To evaluate the IC50s the thymocytes were pre-exposed to graded concentrations of selected compounds for 30 min and then apoptosis was induced with 5 μM dexamethasone. After 6 hours the cells were harvested and stained as above. The results are illustrated in FIGS. 1 and 2 IC50 Determination
The concentration (IC50) of each compound that inhibited dexamethasone-induced cell death by 50% was determined by nonlinear regression fitting of the data to a one-site model. Pseudo Hill slopes were determined by nonlinear regression fit of the data to a sigmoidal dose-response equation (variable slope): % viability=minimum %/viability+(maximum−minimum % viability)/[1+10(log IC50−X)^n], where X is the logarithm of inhibitor concentration, and n is the pseudo Hill slope and the maximum and minimum % viability were experimentally determined after dexamethasone exposure and drug treatment. IC50 values and 95% confidence intervals (CI) were derived from the sigmoid fits to the percent control transformed data shown using GraphPad Prism version 4.0b for Macintosh (GraphPad Software, San Diego, Calif.).

cells = cells pre-incubated with compound, then exposed to γ-radiation; cited from earlier work
[1] = mice; cited from earlier work
[2] = 5 μM dexamethasone, 30 min pre-incubation, 6 hours, 95% CI in parentheses, read-out: EC50, in vitro cytoprotection activity
[3] = read-out: EC50, cytoprotective activity following in vitro dexamethasone treatment of mouse thymocytes

EC50 (thymocytes; [2]) [µM] | Compound | also measured
> 10 | Cc1ccc(C(=O)C[n+]2ccccc2)cc1 [Compound 9, 1-(2-Oxo-2-p-tolyl-ethyl)-pyridinium bromide] | –
> 10 | Cc1ccc(C(=O)C[n+]2cccc3ccccc32)cc1 [Compound 5, 1-(2-Oxo-2-p-tolyl-ethyl)-quinolinium bromide] | –
0.35 | CON=C(C[n+]1cccc2ccccc21)c1ccc(C)cc1 [Compound 4, 1-(2-Methoxyimino-2-p-tolyl-ethyl)-quinolinium bromide] | EC50 (thymocytes; [3]): 0.35 µM
> 10 | Cc1ccc(C(=O)Cn2c(=O)ccc3ccccc32)cc1 [Compound 7, 1-(2-Oxo-2-p-tolyl-ethyl)-1H-quinolin-2-one] | –
0.013 | CON=C(C[n+]1cccc2ccccc21)c1ccc(N2CCCC2)cc1 [Compound 11, 1-[2-Methoxyimino-2-(4-pyrrolidin-1-yl-phenyl)-ethyl]-quinolinium bromide] | –

Second part, the compound before the results:

Compound | EC50 (thymocytes; [2]) [µM] | also measured
CON=C(Cn1c(=O)ccc2ccccc21)c1ccc(N2CCCC2)cc1 [Compound 12, 1-[2-Methoxyimino-2-(4-pyrrolidin-1-yl-phenyl)-ethyl]-1H-quinolin-2-one] | > 10 | –
CON=C(C[n+]1ccccc1)c1ccc(C)cc1 [Compound 8, 1-(2-Methoxyimino-2-p-tolyl-ethyl)-pyridinium bromide] | 5.1 | –
CON=C(Cn1c(=O)ccc2ccccc21)c1ccc(C)cc1 [Compound 6, 1-(2-Methoxyimino-2-p-tolyl-ethyl)-1H-quinolin-2-one] | > 10 | –
CON=C(C[n+]1ccccc1)c1ccc(N2CCCC2)cc1 [Compound 13, 1-[2-Methoxyimino-2-(4-pyrrolidin-1-yl-phenyl)-ethyl]-pyridinium bromide] | 0.28 | –
Br.Cc1ccc(C(=O)Cn2c3c(sc2=N)CCCC3)cc1 [Compound 1, 2-(2-imino-4,5,6,7-tetrahydro-benzothiazol-3-yl)-1-p-tolyl-ethanone hydrobromide] | – | apoptosis after γ-radiation (cells): decreased in apoptosis; mortality after γ-radiation [1]: reduced mortality; EC50 (thymocytes; [3]): 4.4 µM
